In US20230271947A1, “SALT AND CRYSTAL FORM OF KETOHEXOKINASE INHIBITOR AND USE THEREOF” (SHANDONG XUANZHU PHARMA CO., LTD., priority 2020, published 2023):

Experiment: Stability investigation of crystal forms A, B, C, D and the amorphous form of the compound of formula (1) (related substances by HPLC, moisture, XRD, DSC)
Assay type: physicochemical
Conditions: for Stability, testing conclusion: under the above conditions (all placement conditions of the study)
Protocol: 2.1 Investigation conditions for the crystal form A of the compound of formula (1): • placed at 105° C. for 5 days, opened, and sampled for testing on day 5; • placed at 60° C. for 10 days, opened/closed, and sampled for testing on day 10; • placed at 25° C. and RH 92.5% for 10 days, opened/closed, and sampled for testing on day 10; • placed at 40° C. and RH 75% for one month, opened/closed, and sampled for testing on the last day of the month; and • under illumination, employing a closed way (polyethylene bag + composite film bag) to meet illumination requirements, and sampled for testing.
Illumination requirements: ICH Q1B Stability Testing: Photostability Testing of New Drug Substances and Products.
Determination of related substances: determined according to 0512 HPLC in General Principle (Volume IV) of Chinese Pharmacopoeia (2015 Version).
Moisture determination: determined according to 2 Coulometric Titration in the First Method (Karl Fischer titration) of 0832 Moisture Determination Method in General Principle (Volume IV) of Chinese Pharmacopoeia (2015 Version).
XRD determination: determined according to the Second Method-Powder X-ray Diffraction Method of 0451 X-ray Diffraction Method in General Principle (Volume IV) of Chinese Pharmacopoeia (2015 Version).
DSC determination: precisely weighing an appropriate amount of sample in a Standard disc, covering the Standard disc, placing the Standard disc in a sample disc position in a DSC furnace, placing a blank disc of the same type in a reference position, and carrying out the following temperature rise program:
1. Equilibrate at 25° C.; and
2.1 Investigation conditions for the crystal form B of the compound of formula (1): • placed at 105° C. for 5 days, opened, and sampled for testing on day 5; • placed at 60° C. for 10 days, opened/closed, and sampled for testing on day 10; • placed at 25° C. and RH 92.5% for 10 days, opened/closed, and sampled for testing on day 10; • placed at 40° C. and RH 75% for one month, opened/closed, and sampled for testing on the last day of the month; and • under illumination, employing a closed way (polyethylene bag + composite film bag) to meet illumination requirements, and sampled for testing.
2.1 Investigation conditions for the crystal form C of the compound of formula (1): • placed at 105° C. for 5 days, opened, and sampled for testing on day 5; • placed at 60° C. for 10 days, opened/closed, and sampled for testing on day 10; • placed at 25° C. and RH 92.5% for 10 days, opened/closed, and sampled for testing on day 10; • placed at 40° C. and RH 75% for one month, opened/closed, and sampled for testing on the last day of the month; and • under illumination, employing a closed way (polyethylene bag + composite film bag) to meet illumination requirements, and sampled for testing.
1. Equilibrate at 25° C.; and 2. Ramp 10° C. to 200° C.
2.1 Investigation conditions for the crystal form D of the compound of formula (1): • placed at 105° C. for 5 days, opened, and sampled for testing on day 5; • placed at 60° C. for 10 days, opened/closed, and sampled for testing on day 10; • placed at 25° C. and RH 92.5% for 10 days, opened/closed, and sampled for testing on day 10; • placed at 40° C. and RH 75% for one month, opened/closed, and sampled for testing on the last day of the month; and • under illumination, employing a closed way (polyethylene bag + composite film bag) to meet illumination requirements, and sampled for testing.
2.1 Investigation conditions for the amorphous form of the compound of formula (1): • placed at 60° C. for 10 days, opened/closed, and sampled for testing on day 10; • placed at 25° C. and RH 92.5% for 10 days, opened/closed, and sampled for testing on day 10; • placed at 40° C. and RH 75% for one month, opened/closed, and sampled for testing on the last day of the month; and • under illumination, employing a closed way (polyethylene bag + composite film bag) to meet illumination requirements, and sampled for testing.

[1] = 25° C., RH 92.5%, closed, 10 days
[2] = 25° C., RH 92.5%, opened, 10 days

## C[C@H]1CCN1c1nc(N2C[C@@H]3[C@@H](CC(=O)O)[C@@H]3C2)c2c(n1)C(F)(F)CC2 [Crystal form D, 2-((1R,5S,6R)-3-(7,7-difluoro-2-((S)-2-methylazetidin-1-yl)-6,7-dihydro-5H-cyclopenta[d]pyrimidin-4-yl)-3-azabicyclo[3.1.0]hexan-6-yl)acetic acid]
0 day
  DSC: 167.79 °C
  Moisture %: 0.066%
  Total related %: 0.37%
  Trait: Off-white power
[1]
  DSC: 167.46 °C
  Moisture %: 0.092%
  Total related %: 0.38%
  Trait: Off-white power
  XRD: Same as day 0
[2]
  DSC: 167.51 °C
  Moisture %: 0.048%
  Total related %: 0.38%
  Trait: Off-white power
  XRD: Same as day 0
40° C., RH 75%, closed, 1 M
  DSC: 167.77 °C
  Moisture %: 0.065%
  Total related %: 0.38%
  Trait: Off-white power
  XRD: Same as day 0
40° C., RH 75%, opened, 1 M
  DSC: 167.75 °C
  Moisture %: 0.12%
  Total related %: 0.39%
  Trait: Off-white power
  XRD: Same as day 0
60° C., closed, 10 days
  DSC: 167.43 °C
  Moisture %: 0.089%
  Total related %: 0.40%
  Trait: Off-white power
  XRD: Same as day 0
60° C., opened, 10 days
  DSC: 167.41 °C
  Moisture %: 0.079%
  Total related %: 0.41%
  Trait: Off-white power
  XRD: Same as day 0
105° C., opened, 5 days
  DSC: 167.19 °C
  Moisture %: 0.045%
  Total related %: 0.51%
  Trait: Off-white power
  XRD: Same as day 0
Avoid light for 18 days
  DSC: 167.49 °C
  Moisture %: 0.048%
  Total related %: 0.38%
  Trait: Off-white power
  XRD: Same as day 0
  Stability, testing conclusion: relatively stable

## C[C@H]1CCN1c1nc(N2C[C@@H]3[C@@H](CC(=O)O)[C@@H]3C2)c2c(n1)C(F)(F)CC2 [Crystal form B, 2-((1R,5S,6R)-3-(7,7-difluoro-2-((S)-2-methylazetidin-1-yl)-6,7-dihydro-5H-cyclopenta[d]pyrimidin-4-yl)-3-azabicyclo[3.1.0]hexan-6-yl)acetic acid]
0 day
  DSC: 169.28 °C
  Moisture %: 0.17%
  Total related %: 0.08%
  Trait: White powder
[1]
  DSC: 169.47 °C
  Moisture %: 0.35%
  Total related %: 0.10%
  Trait: White powder
  XRD: Same as day 0
[2]
  DSC: 169.31 °C
  Moisture %: 0.26%
  Total related %: 0.10%
  Trait: White powder
  XRD: Same as day 0
40° C., RH 75%, closed, 1 M
  DSC: 169.57 °C
  Moisture %: 0.39%
  Total related %: 0.08%
  Trait: White powder
  XRD: Same as day 0
40° C., RH 75%, opened, 1 M
  DSC: 169.43 °C
  Moisture %: 0.35%
  Total related %: 0.09%
  Trait: White powder
  XRD: Same as day 0
60° C., closed, 10 days
  DSC: 169.35 °C
  Moisture %: 0.21%
  Total related %: 0.11%
  Trait: White powder
  XRD: Same as day 0
60° C., opened, 10 days
  DSC: 169.27 °C
  Moisture %: 0.26%
  Total related %: 0.13%
  Trait: White powder
  XRD: Same as day 0
105° C., opened, 5 days
  DSC: 169.53 °C ° C.
  Moisture %: 0.28%
  Total related %: 0.22%
  Trait: White powder
  XRD: Same as day 0
Avoid light for 18 days
  DSC: 169.15 °C
  Moisture %: 0.17%
  Total related %: 0.07%
  Trait: White powder
  XRD: Same as day 0
  Stability, testing conclusion: relatively stable

## C[C@H]1CCN1c1nc(N2C[C@@H]3[C@@H](CC(=O)O)[C@@H]3C2)c2c(n1)C(F)(F)CC2 [Amorphous form, 2-((1R,5S,6R)-3-(7,7-difluoro-2-((S)-2-methylazetidin-1-yl)-6,7-dihydro-5H-cyclopenta[d]pyrimidin-4-yl)-3-azabicyclo[3.1.0]hexan-6-yl)acetic acid]
0 day
  Moisture %: 0.70%
  Total related %: 0.21%
  Trait: Off-white power
[1]
  Moisture %: 2.8%
  Total related %: 0.35%
  Trait: Off-white power
[2]
  Moisture %: 3.1%
  Total related %: 0.38%
  Trait: Off-white power
40° C., RH 75%, closed, 1 M
  Moisture %: 2.1%
  Total related %: 2.98%
  Trait: Off-white power
40° C., RH 75%, opened, 1 M
  Moisture %: 1.9%
  Total related %: 2.86%
  Trait: Off-white power
60° C., closed, 10 days
  Moisture %: 0.73%
  Total related %: 3.92%
  Trait: Off-white power
60° C., opened, 10 days
  Moisture %: 0.56%
  Total related %: 4.30%
  Trait: Off-white power
Avoid light for 18 days
  Moisture %: 1.26%
  Total related %: 0.42%
  Trait: Off-white power
  Stability, testing conclusion: less stable than that of the crystal form A, the crystal form B, the crystal form C and the crystal form D
